These results are taken from patent US5352705A, “Inhibitors of farnesyl protein transferase” (Merck & Co., Inc., priority 1992, dated 1994).

The target in test [1] is T1, Farnesyl-protein transferase (Ftase) from bovine brain (Bos taurus, UniProt P29702+P49355).
T1 construct: Farnesyl-protein transferase (Ftase) from bovine brain was chromatographed on DEAE-Sephacel; from tissue; host or cells: bovine brain, partially purified (DEAE-Sephacel, N-octyl agarose, mono Q HPLC)
Nature of the test: In vitro inhibition of ras farnesyl transferase. The following applies: Ras-CVLS 3.5 μM, 0.25 μM [3H]FPP, partially purified bovine brain enzyme; read-out: IC50 (concentration of compound which gives 50% inhibition of FTase under the described assay conditions). In kind it is biochemical. On the procedure:
In vitro inhibition of ras farnesyl transferase
Farnesyl-protein transferase (Ftase) from bovine brain was chromatographed on DEAE-Sephacel (Pharmacia, 0-0.8 M NaC1 gradient elution), N-octyl agarose (Sigma, 0-0.6 M Nacl gradient elution), and a mono Q HPLC column (Pharmacia, 0-0.3 M NaC1 gradient). Ras-CVLS at 3.5 μM, 0.25 μM [3H]FPP, and the indicated compounds were incubated with this partially purified enzyme preparation. The Ftase data presented below is a measurement of the ability of the test compound to inhibit RAS farnesylation in vitro.
*(IC50 is the concentration of compound which gives 50% inhibition o
FTase under the described assay conditions)

For test [2], the system named is Ras farnesylation. The following applies: cited from earlier work.

Turning to `CC[C@H](C)[C@H](NC[C@@H](N)CS)C(=O)NCc1cccc(Cl)c1Cl` [N-[2(R)-Amino-3-mercaptopropyl]-L-isoleucine-2,3-dichlorobenzylamide], in test [1], the IC50 worked out at 25 nM. Regarding `CC[C@H](C)[C@H](NC[C@@H](N)CS)C(=O)NCCc1cccc(Cl)c1` [N-[2(R)-Amino-3-mercaptopropyl]-L-isoleucine-3-chlorophenethylamide], the IC50 in test [1] worked out at 63 nM. Still for that read-out and setting: the result for `CC[C@H](C)[C@H](NC[C@@H](N)CS)C(=O)Nc1cccc(C)c1C` [N-[2(R)-amino-3-mercaptopropyl]-L-isoleucine-2,3-dimethylphenylamide] reads 35 nM; that for `CC[C@H](C)[C@H](NC[C@@H](N)CS)C(=O)Nc1ccccc1` [N-[2(R)-amino-3-mercaptopropyl]-L-isoleucine-anilide], 63 nM. As to `CC[C@H](C)C(=O)O[C@H]1CCC=C2C=C[C@H](C)[C@H](CC[C@@H]3C[C@@H](O)CC(=O)O3)[C@H]21` [compactin], in test [2], the “Inhibition of Ras farnesylation in vivo” value was “Inhibition of Ras farnesylation in vivo has been demonstrated”. Regarding `CC[C@H](C)C(=O)O[C@H]1C[C@@H](C)C=C2C=C[C@H](C)[C@H](CC[C@@H]3C[C@@H](O)CC(=O)O3)[C@H]21` [lovastatin], the “Inhibition of Ras farnesylation in vivo” value in test [2] is “Inhibition of Ras farnesylation in vivo has been demonstrated”.
